Data reported in article PMC8241751, “Influence of the Dabcyl group on the cellular uptake of cationic peptides: short oligoarginines as efficient cell-penetrating peptides” (Amino Acids, 2021).
“And” between values parts separate entries of the source, which are not always exact repeats. Equal entries are not always repeated. Where a SMILES comes first, the peptide text is derived from it. The star is where a group is joined. 5FAM = O=C1OC2(c3ccc(O)cc3Oc3cc(O)ccc32)c2ccc(C(=O)*)cc21; X1 = CN(C)c1ccc(/N=N/c2ccc(C(=O)*)cc2)cc1

What was measured:
MDA-MB-231 cells = test: In vitro cytostatic activity (MTT) on MDA-MB-231; type: cell-based, human; settings: 3 h incubation, then 3 days in serum-containing medium, MTT assay, ± sd
CHO-K1 cells [1] = test: Absolute quantification of total internalised peptide by fluorometry; settings: for Total (37 °C–4 °C) (pmoles) Endocyt. / 4 °C/37 °C (Fluoro): CHO-K1, 60 min; for Total (37 °C–4 °C) (pmoles) Endocyt.: difference of fluorometry values at 37 °C and 4 °C; for 4 °C/37 °C (Fluoro): internalisation ratio by fluorometry; for Total 4 °C (pmoles) Transloc. / Total 37 °C (pmoles) Endocyt. + Transloc.: one million CHO-K1 cells, DMEM-F12, 60 min, cell lysis, fluorometry 525 nm vs calibration curve, mean values; for Total 4 °C (pmoles) Transloc.: pronase wash; for Total 37 °C (pmoles) Endocyt. + Transloc.: trypsin wash
Method: We used the quantification method described earlier (Illien et al. [2016]). […] After incubation with peptides and washing the cells with HBSS, 500 μL 0.05% trypsin/EDTA 0.05% (37 °C) or 500 µL pronase 0.05% in 100 mM Tris pH 7.4 (4 °C) was added for 5 min to hydrolyze the remaining extracellular peptide, the membrane-bound peptide and to detach cells. After addition of 100 µL enzyme inhibitors (complete mini at 4 °C (Roche) or trypsin inhibitor (soybean inhibitor 5 mg/mL) at 37 °C mixed with 100 μL bovine serum albumin (1 mg/mL), cells were transferred into a microtube, centrifuged, washed with 1 mL 50 mM Tris buffer pH 7.4, 0.1% BSA, and lysed in 200 μL 50 mM Tris pH 7.4, 1 M NaCl, 1% Nonident P40. The samples were then sonicated for 15 min (to homogenise samples) and centrifugated for 10 min at 16.000 g. Fluorescence intensity in the supernatants was monitored with a MOS 200 M fluorimeter (Biologic SAS) and the maximal intensity was detected around λ = 525 nm. The maximal intensity was retained for the calibration curve and for quantification of samples. The amount of internalised peptides was calculated by comparing the fluorescence intensity of the sample with the calibration curve. For the calibration curve, we prepared a range of peptide amounts (from 2 to 500 pmol) in the lysis buffer (50 mM Tris pH 7.4, 1 M NaCl, 1% Nonidet P40) in the presence of one million suspended cells. The samples were sonicated 15 min and centrifuged at 16.000 g for 10 min. Fluorescence intensity in the supernatants was monitored with a MOS 200 M fluorimeter (Biologic SAS, France) and the maximal intensity was detected around λ = 525 nm. The fluorescence signal of peptides only was obtained by subtracting the fluorescence intensity of cell lysates (autofluorescence) from the fluorescence intensity of the sample.

HL-60 cells [2] = test: Cellular uptake by flow cytometry on HL-60 cells; type: cell-based, human; settings: HL-60, 90 min, 37 °C, serum-free, concentrations of the two values not stated, Dabcyl quenches Cf
Method: HL-60 cells were cultured as described above. To study the cellular uptake of fluorescent labelled compounds, 10^5 cells per well were plated on 24-well plates. After 24 h incubation at 37 °C, cells were treated with the compounds solved in the corresponding serum-free media for 90 min. The cellular uptake was analysed at 1, 5 and 10 µM concentrations. Cells treated with serum-free media for 90 min were used as control. After incubation, treatment solutions were removed and the cells were treated with 100 μL trypsin for 2 min to remove the membrane proteins in order to eliminate non-specific binding of conjugates. The effect of trypsin was terminated by 900 μL HPMI (glucose, NaHCO3, NaCl, HEPES, KCl, MgCl2, CaCl2, Na2HPO4·2H2O) (Kapus et al. [1994]) containing 10% foetal calf serum, and the cells were transferred from the plate to FACS-tubes. Cells were centrifuged at 216 g at 4 °C for 5 min and the supernatant was removed. After this procedure, cells were resuspended in 500 µL HPMI, and the intracellular fluorescence intensity of HL-60 cells was monitored (on channel FITC LP505; emission at λ = 505 nm; LP 505, BP 530/30) by flow cytometry (BD LSR II, BD Bioscience, San Jose, CA, equipped with 488 nm; Coherent Sapphire, 22 mW laser.) which is proportional to the cellular uptake. Data were analysed with FACSDiVa 5.0 software.

CHO-K1 cells [3] = test: Relative quantification of total internalised peptide by flow cytometry; settings: CHO-K1, 1 h, DMEM-F12, internalisation ratio by flow cytometry, intact cells, 20.000 cells
Method: After incubation and washing the cells with HBSS, 500 μL 0.05% trypsin/EDTA 0.05% (37 °C) or 500 µL pronase 0.05% in 100 mM Tris-buffer (4 °C) was added for 5 min to hydrolyze the remaining extracellular peptide, the membrane-bound peptide and to detach cells. After addition of 100 µL enzyme inhibitors (complete mini at 4 °C (Roche) or trypsin inhibitor (soybean inhibitor 5 mg/mL) at 37 °C mixed with 100 μL bovine serum albumin (1 mg/mL). Cells were transferred into a microtube, centrifuged, washed with 1 mL 50 mM Tris-buffer pH 7.4, 0.1% BSA, and the cell pellet was suspended in 400 μL of PBS. The fluorescence of individual cells was analysed with a FACS Calibur flow cytometer. 20.000 cells were measured for each experimental condition. The mean fluorescence of a sample was obtained by subtracting the autofluorescence of cells from the measured mean fluorescence of cells in the presence of the peptide.

HL-60 cells [4] = test: In vitro cytostatic activity (MTT) on HL-60; type: cell-based, human; settings: HL-60; 3 h incubation, then 3 days in serum-containing medium; MTT assay; ± sd, three independent experiments with four parallels
Method: (§1) The cells (HL-60 or MCF-7) were grown to confluency and were plated into 96-well plate with initial cell number of 5 × 10^3 per well. After 24 h incubation at 37 °C, cells were treated with the compounds at 1.28 × 10^–3–100 μM concentration range for 3 h in 200 μL final volume. Control cells were treated with serum free medium at 37 °C for 3 h. After incubation the cells were washed twice with serum free medium. For the analysis of the in vitro cytostatic effect, cells were cultured for an additional 72 h in serum containing medium. On day 4, MTT assay was carried out to determine the IC50 values of the compounds. Briefly, 45 μL of MTT solution was added to each well (2 mg/mL, dissolved in serum-free medium). Following the 4 h incubation, plates were centrifuged at 900 g for 5 min, and the supernatant was removed. The precipitated purple crystals were dissolved in 100 μL DMSO and the absorbance was determined at λ = 540 nm and λ = 620 nm using ELISA plate reader (iEMSReader, Labsystems, Finland). The percent of cytostasis was calculated using the following equation: Cytostatic effect (%) = [1 − (ODtreated/ODcontrol)] × 100; where ODtreated and ODcontrol correspond to the optical densities of the treated and the untreated control cells, respectively. In each case three independent experiments were carried out with four parallel measurements. […] The curves were defined using MicrocalTM Origin (version 9.2) software: cytostasis was plotted as a function of concentration, fitted to a sigmoidal curve, and based on this curve, the IC50 value was determined.

MCF-7 cells = test: In vitro cytostatic activity (MTT) on MCF-7; type: cell-based, human; settings: 3 h incubation, then 3 days in serum-containing medium, MTT assay, ± sd, three independent experiments with four parallels
Method: as §1, with “Following the 4 h incubation, plates were centrifuged at 900 g for 5 min, and the supernatant was removed.” left out, “respectively.” for “respectively. In each case three independent experiments were carried out with four parallel measurements.”

Dabcyl–RRRRK(MTX)–NH2 [Dabcyl–Arg4–Lys(MTX)–NH2]
IC50 (MDA-MB-231 cells): 70.9 ± 30.1 µM

CN(C)c1ccc(/N=N/c2ccc(C(=O)N[C@@H](CCCNC(=N)N)C(=O)N[C@@H](CCCNC(=N)N)C(=O)N[C@@H](CCCNC(=N)N)C(=O)N[C@@H](CCCNC(=N)N)C(=O)N[C@@H](CCCCNC(=O)c3ccc4c(c3)C(=O)OC43c4ccc(O)cc4Oc4cc(O)ccc43)C(N)=O)cc2)cc1 [Dabcyl–Arg4–Lys(Cf)–NH2] (X1-RRRRK(5FAM)-NH2)
Total (37 °C–4 °C) (pmoles) Endocyt. (CHO-K1 cells [1]; [peptide] 1 μM): 0.3 pmol | 4 °C/37 °C (Fluoro) (CHO-K1 cells [1]; [peptide] 1 μM): 0.57 | Total 4 °C (pmoles) Transloc. (CHO-K1 cells [1]; [peptide] 1 μM): 0.4 ± 0.06 pmol | Total 37 °C (pmoles) Endocyt. + Transloc. (CHO-K1 cells [1]; [peptide] 1 μM): 0.7 ± 0.1 pmol | Total (37 °C–4 °C) (pmoles) Endocyt. (CHO-K1 cells [1]; [peptide] 2.5 μM): 1.3 pmol | 4 °C/37 °C (Fluoro) (CHO-K1 cells [1]; [peptide] 2.5 μM): 0.43 | Total 4 °C (pmoles) Transloc. (CHO-K1 cells [1]; [peptide] 2.5 μM): 0.9 ± 0.1 pmol | Total 37 °C (pmoles) Endocyt. + Transloc. (CHO-K1 cells [1]; [peptide] 2.5 μM): 2.2 ± 0.2 pmol | Total (37 °C–4 °C) (pmoles) Endocyt. (CHO-K1 cells [1]; [peptide] 5 μM): 6 pmol | 4 °C/37 °C (Fluoro) (CHO-K1 cells [1]; [peptide] 5 μM): 0.22 | Total 4 °C (pmoles) Transloc. (CHO-K1 cells [1]; [peptide] 5 μM): 1.8 ± 0.1 pmol | Total 37 °C (pmoles) Endocyt. + Transloc. (CHO-K1 cells [1]; [peptide] 5 μM): 7.8 ± 0.9 pmol | Total (37 °C–4 °C) (pmoles) Endocyt. (CHO-K1 cells [1]; [peptide] 10 μM): 26 pmol | 4 °C/37 °C (Fluoro) (CHO-K1 cells [1]; [peptide] 10 μM): 0.14 | Total 4 °C (pmoles) Transloc. (CHO-K1 cells [1]; [peptide] 10 μM): 4.2 ± 0.3 pmol | Total 37 °C (pmoles) Endocyt. + Transloc. (CHO-K1 cells [1]; [peptide] 10 μM): 30 ± 3.3 pmol | Fluorescence intensity of the cells, times higher than hexaarginine (HL-60 cells [2]): 1.6 times and 2.8 times | 4 °C/37 °C (Flow cyto.) (CHO-K1 cells [3]; [peptide] 1 μM): 0.17 | 4 °C/37 °C (Flow cyto.) (CHO-K1 cells [3]; [peptide] 2.5 μM): 0.12 | 4 °C/37 °C (Flow cyto.) (CHO-K1 cells [3]; [peptide] 5 μM): 0.10 | 4 °C/37 °C (Flow cyto.) (CHO-K1 cells [3]; [peptide] 10 μM): 0.04

COc1cccc2c1C(=O)c1c(O)c3c(c(O)c1C2=O)C[C@@](O)(C(C)=O)C[C@@H]3O[C@H]1C[C@H](NC(=O)CCC(=O)O)[C@H](O)[C@H](C)O1 [Suc–Dau, reference compound]
IC50 (MDA-MB-231 cells): > 100 µM | IC50 (HL-60 cells [4]): 33.5 ± 1.1 µM | IC50 (MCF-7 cells): 24.5 ± 7.1 µM

Dabcyl–RRRRRRK(MTX)–NH2 [Dabcyl–Arg6–Lys(MTX)–NH2]
IC50 (MDA-MB-231 cells): 50.2 ± 16 µM | IC50 (MCF-7 cells): 46.4 ± 18.5 µM
